Results reported in PMC11440583 (2024).

Legend:
[1] = test system: Bom17 (DNA, G4) GGTTAGGTTAGGTTAGG; assay: CD (or UV) thermal melting; conditions: 15 mM KCl; 10 mM Tris pH 7.2; 8 μM compound, 2 μM DNA
[2] = test system: VEGF (DNA, G4) GGGAGGGTTGGGGTGGG; assay: CD (or UV) thermal melting; conditions: 5 mM KCl; 10 mM Tris pH 7.2; 8 μM compound, 2 μM DNA
[3] = test system: c-MYC Pu24T (c-MYC Pu24-T; c-MYC Pu24) (DNA, G4) TGAGGGTGGTGAGGGTGGGGAAGG; assay: CD (or UV) thermal melting; conditions: 5 mM KCl; 10 mM Tris pH 7.2; 8 μM compound, 2 μM DNA
[4] = test system: Cy5-HIF-1α (DNA, G4) GCGCGGGGAGGGGAGAGGGGGCGGGAGCGCG; assay: microscale thermophoresis (ligand-induced fluorescence quenching); conditions: 100 mM KCl; 50 mM Tris pH 7.2, 0.05% Tween 20; 50 nM G4
[5] = test system: Tel22 (Tel22-Na+ antiparallel; Tel22-K+ hybrid) (DNA, G4) AGGGTTAGGGTTAGGGTTAGGG; assay: CD (or UV) thermal melting; conditions: 10 mM Tris pH 7.2, 8 μM compound, 2 μM DNA
[6] = test system: c-MYC Pu22 (DNA, G4) TGAGGGTGGGTAGGGTGGGTAA; assay: 1H NMR titration; conditions: K+; 0-1.5 equiv compound
[7] = test system: Tel22 (Tel22-Na+ antiparallel; Tel22-K+ hybrid) (DNA, G4) AGGGTTAGGGTTAGGGTTAGGG; assay: 1H NMR titration; conditions: up to 2.0 equiv compound
[8] = test system: c-MYC Pu22 (DNA, G4) TGAGGGTGGGTAGGGTGGGTAA; assay: CD (or UV) thermal melting; conditions: 5 mM KCl; 10 mM Tris pH 7.2; 8 μM compound, 2 μM DNA
[9] = test system: TBA (DNA, G4) GGTTGGTGTGGTTGG; assay: CD (or UV) thermal melting; conditions: 5 mM KCl; 10 mM Tris pH 7.2; 8 μM compound, 2 μM DNA
[10] = test system: F-Tel22-Na+-T (DNA, G4) AGGGTTAGGGTTAGGGTTAGGG; assay: FRET melting with dsDNA competitor; conditions: 40 mM NaCl; 10 mM sodium cacodylate pH 7.2; 2 μM compound, 0.2 μM G4; 0-20 μM dsDNA
[11] = test system: dsDNA (DNA, duplex) CAATCGGATCGAATTCGATCCGATTG; assay: CD (or UV) thermal melting; conditions: 5 mM KCl; 10 mM Tris pH 7.2; 8 μM compound, 2 μM DNA

## NCCNCCNC(=O)c1cc(F)c(/N=N/c2c(F)cc(-c3ccncc3)cc2F)c(F)c1
[1]
  ΔTm: 8.8 °C
[2]
  ΔTm: 14.7 °C
[3]
  ΔTm: 4.2 °C
[4]
  association constant: 2.8 × 10^5 M^–1
[5]; 5 mM KCl
  ΔTm: 9.9 °C
[5]; 15 mM NaCl
  ΔTm: 5.8 °C
[6]
  binding: yes
[7]
  binding: yes
[8]
  ΔTm: 19.2 °C
[9]
  ΔTm: 6.3 °C
[10]
  binding: yes
[11]
  ΔTm: 1.0 °C
